Patent US5646173A, “Tricyclic pyrrole derivatives useful as 5-HT selective agents” (Hoffmann-La Roche Inc., priority 1993, dated 1997)
Counter-ions that a name gives are not always drawn. Like-named read-outs stand apart in the source and are kept apart here.

Columns and labels:
5HT2A receptor [1] = molecular target: T1, 5HT2A receptor (Rattus norvegicus, UniProt P14842); assay: biochemical; type: binding
T1 construct: from tissue; host or cells: rat frontal cortex membranes (inferred from the cited method)
T1 sequence (P14842 whole entry): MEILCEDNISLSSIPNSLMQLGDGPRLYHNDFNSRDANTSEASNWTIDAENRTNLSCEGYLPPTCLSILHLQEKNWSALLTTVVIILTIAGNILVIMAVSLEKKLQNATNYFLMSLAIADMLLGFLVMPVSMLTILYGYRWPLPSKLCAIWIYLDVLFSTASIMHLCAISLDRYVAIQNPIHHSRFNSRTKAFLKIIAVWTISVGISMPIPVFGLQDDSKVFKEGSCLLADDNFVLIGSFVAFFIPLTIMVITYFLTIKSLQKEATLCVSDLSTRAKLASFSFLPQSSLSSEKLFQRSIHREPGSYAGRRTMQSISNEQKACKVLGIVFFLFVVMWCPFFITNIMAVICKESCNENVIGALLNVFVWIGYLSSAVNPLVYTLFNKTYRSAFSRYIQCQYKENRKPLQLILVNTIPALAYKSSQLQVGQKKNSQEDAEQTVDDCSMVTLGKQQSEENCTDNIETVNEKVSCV
Protocol: (§1) The binding of the compounds of formula I in accordance with the invention to serotonin receptors was determined in vitro by standard methods. The preparations were investigated in accordance with the assays given hereinafter:
c) For the binding to the 5HT2A receptor in accordance with the ^3 H-ketanserine binding assay according to the method of J. E. Leysen, Molecular Pharmacology 21, 301-304 (1981).

5HT1A receptor = assay: 3H-8-OH-DPAT binding assay (Method I a); settings: read-out: IC50, test method a
Protocol: The binding of the compounds of formula I in accordance with the invention to serotonin receptors was determined in vitro by standard methods. The preparations were investigated in accordance with the assays given hereinafter: […]

5HT2C receptor [2] = molecular target: T2, 5HT2C receptor (Rattus norvegicus, UniProt P08909); assay: Penile erection (rats); type: in vivo; design: from tissue; host or cells: living rat; settings: s.c., number of penile erections within 45 minutes following administration
T2 sequence (P08909 33-460): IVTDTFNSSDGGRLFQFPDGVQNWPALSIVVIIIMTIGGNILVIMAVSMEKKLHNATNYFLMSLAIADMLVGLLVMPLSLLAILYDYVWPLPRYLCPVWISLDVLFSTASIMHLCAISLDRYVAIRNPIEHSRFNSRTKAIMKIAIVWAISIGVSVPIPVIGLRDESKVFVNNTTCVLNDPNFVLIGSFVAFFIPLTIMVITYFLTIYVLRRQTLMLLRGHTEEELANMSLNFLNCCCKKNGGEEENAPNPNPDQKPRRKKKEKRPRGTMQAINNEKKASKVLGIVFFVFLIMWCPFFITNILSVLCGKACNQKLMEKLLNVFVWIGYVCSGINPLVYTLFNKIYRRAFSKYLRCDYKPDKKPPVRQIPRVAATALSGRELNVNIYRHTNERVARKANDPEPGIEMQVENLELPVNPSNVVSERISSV
Protocol: It has been shown that penile erection is dependent on the stimulation of the 5HT2C receptor (see Berendsen & Broekkamp, Eur. J. Pharmacol, 135, 179-184 (1987)).
The number of penile erections was determined within 45 minutes following administration of the test substance to the animal.

5HT2C receptor [3] = molecular target: T3, 5HT2C receptor (Sus scrofa, UniProt K7GSR7); assay: 3H-mesulergine binding assay (Method I b)
T3 construct: from tissue
T3 sequence (K7GSR7 1-457): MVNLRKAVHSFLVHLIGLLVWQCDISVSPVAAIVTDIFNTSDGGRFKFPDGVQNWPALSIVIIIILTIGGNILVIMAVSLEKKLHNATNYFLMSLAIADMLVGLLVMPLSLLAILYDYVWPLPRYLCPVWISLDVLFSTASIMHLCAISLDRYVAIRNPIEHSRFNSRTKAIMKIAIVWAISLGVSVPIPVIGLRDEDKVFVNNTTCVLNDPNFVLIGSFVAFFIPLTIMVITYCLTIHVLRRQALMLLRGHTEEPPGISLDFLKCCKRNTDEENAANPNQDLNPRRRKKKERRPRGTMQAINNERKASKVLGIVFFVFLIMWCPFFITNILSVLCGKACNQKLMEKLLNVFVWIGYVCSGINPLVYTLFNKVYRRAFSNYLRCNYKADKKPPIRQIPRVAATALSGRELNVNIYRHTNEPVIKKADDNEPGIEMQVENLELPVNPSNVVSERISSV
Protocol: as §1
b) For the binding to the 5HT2C receptor in accordance with the ^3 H-mesulergine binding assay according to the method of A. Pazos et al., Europ. J. Pharmacol. 106, 539-546 or. D. Hoyer, Receptor Research 8, 59-81 (1988).

5HT2C receptor [4] = molecular target: T2, 5HT2C receptor; assay: [3H]-5-HT binding assay (Method II b); design: expressed in transfected cells; host or cells: clonal 5-HT1C cell line
Source text: b) For the binding to the 5HT2C receptor in accordance with the [3H]-5-HT binding assay according to the method of S. J. Peroutka et al., Brain Research 584, 191-196 (1992).
(§2) The pki values (pki =-log^10 Ki) of the test substances are given. […] [L] is the concentration of ligand and the KD value is the dissociation constant of the ligand.

human-5HT1A receptors = molecular target: T4, human-5HT1A receptors (Homo sapiens, UniProt P08908); assay: [3H]-5-HT displacement on recombinant human 5HT1A receptors expressed in 3T3 cells of mice (Method II a); type: binding
T4 construct: expressed in transfected cells; host or cells: mouse 3T3 cells
T4 sequence (P08908 1-422): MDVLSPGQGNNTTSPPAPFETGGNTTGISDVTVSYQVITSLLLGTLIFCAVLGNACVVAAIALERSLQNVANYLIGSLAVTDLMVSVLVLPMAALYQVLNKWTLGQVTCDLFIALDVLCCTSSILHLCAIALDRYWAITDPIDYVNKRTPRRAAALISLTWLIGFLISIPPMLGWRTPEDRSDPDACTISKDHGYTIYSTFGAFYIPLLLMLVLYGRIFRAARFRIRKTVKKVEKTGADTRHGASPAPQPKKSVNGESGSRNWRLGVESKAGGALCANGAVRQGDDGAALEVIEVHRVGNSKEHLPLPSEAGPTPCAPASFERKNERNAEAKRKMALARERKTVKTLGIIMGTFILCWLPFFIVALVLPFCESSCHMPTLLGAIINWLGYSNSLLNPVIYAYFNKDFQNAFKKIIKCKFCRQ
Source text: [L] is the concentration of ligand and the KD value is the dissociation constant of the ligand.

5HT2A receptor [5] = molecular target: T5, 5HT2A receptor (Homo sapiens, UniProt P28223); assay: [3H]-DOB binding assay (Method II c)
T5 construct: expressed in transfected cells; host or cells: transfected mammalian cells (inferred from the cited method)
T5 sequence (P28223 whole entry): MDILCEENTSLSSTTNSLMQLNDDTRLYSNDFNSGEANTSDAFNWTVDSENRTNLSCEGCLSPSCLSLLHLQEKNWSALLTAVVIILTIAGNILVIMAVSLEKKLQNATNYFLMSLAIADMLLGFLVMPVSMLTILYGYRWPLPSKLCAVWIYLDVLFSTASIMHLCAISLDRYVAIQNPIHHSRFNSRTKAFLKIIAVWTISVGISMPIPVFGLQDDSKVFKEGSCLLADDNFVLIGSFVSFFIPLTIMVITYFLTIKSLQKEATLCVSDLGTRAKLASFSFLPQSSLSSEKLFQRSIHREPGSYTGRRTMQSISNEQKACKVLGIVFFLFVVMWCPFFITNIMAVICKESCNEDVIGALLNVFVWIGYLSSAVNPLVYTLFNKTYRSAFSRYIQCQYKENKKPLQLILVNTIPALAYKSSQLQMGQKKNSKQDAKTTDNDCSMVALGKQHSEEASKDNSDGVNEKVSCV
Source text: c) For the binding to the 5HT2A receptor in accordance with the [3H]-DOB binding assay according to the method of T. Branchek et al., Molecular Pharmacology 38, 604-609 (1990).
as §2

[6] = human 5HT1A, [3H]-5-HT (1 nM), 3T3 cell membranes, Method II, read-out: pki, test method a (converted)
[7] = 5HT2C, [3H]-5-HT, Method II, read-out: pki, test method b (converted)
[8] = rat, sc, 0.75 h, read-out: ED50

| Structure (SMILES) | IC50 (5HT2A receptor [1]) | IC50 (5HT1A receptor) | ED50 (5HT2C receptor [2]) | IC50 (5HT2C receptor [3]) | Ki (5HT2C receptor [4]) | Ki (human-5HT1A receptors; [6]) | Ki (5HT2A receptor [5]) | Ki (5HT2C receptor [4]; [7]) | Ki (human-5HT1A receptors) | ED50 (5HT2C receptor [2]; [8]) |
| --- | --- | --- | --- | --- | --- | --- | --- | --- | --- | --- |
| COc1ccc2c(c1)-c1c(ccn1C[C@H](C)N)CC2.O=C(O)/C=C/C(=O)O [Example 5, (S)-2-(4,5-dihydro-8-methoxy-1H-benz[g]indol-1-yl)-1-methyl-ethylamine fumarate (1:1)] | 591 nM | 2560 nM | 3.20 mg/kg, s.c. | 20.2 nM | – | – | – | – | – | – |
| CCc1ccc2c(c1)-c1c(ccn1C[C@H](C)N)C2 [Example 17, (S)-2-(7-ethyl-1,4-dihydro-indeno[1,2-b]pyrrol-1-yl)-1-methyl-ethylamine fumarate (1:0.5)] | – | – | – | – | 18.2 nM | 10000 nM | 562 nM | – | – | – |
| Cc1cccc2c1Cc1ccn(CC(C)N)c1-2 (racemic) [Example 50, (RS)-2-(5-methyl-1,4-dihydro-indeno[1,2-b]pyrrol-1-yl)-1-methyl-ethylaminefumarate (1:0.5)] | – | – | – | – | 107 nM | 2400 nM | 447 nM | – | – | – |
| Cc1ccc2c(c1)-c1c(ccn1C[C@H](C)N)C21CCCC1 [Example 44, (S)-1-methyl-2-(7'-methyl-1',4'-dihydro-spiro[cyclopentane]-1,4'-indeno[1,2-b]pyrrol-1-yl)-ethylamine fumarate (1:1)] | – | – | – | – | 79.4 nM | 1860 nM | 269 nM | – | – | – |
| CCc1ccc2c(c1)-c1c(ccn1C[C@H](C)N)C2(C)C [Example 8, (S)-2-(7-ethyl-4,4-dimethyl-1,4-dihydro-indeno[1,2-b]pyrrol-1-yl)-1-methyl-ethylamine fumarate (1:1)] | – | – | – | – | – | – | 66.1 nM | 2.34 nM | 4570 nM | – |
| Cc1ccc2c(c1)-c1c(ccn1C[C@H](C)N)C2(C)C.O=C(O)/C=C/C(=O)O [Example 1, (S)-2-(4,4,7-trimethyl-1,4-dihydro-indeno[1,2-b]pyrrol-1-yl)-1-methyl-ethylamine fumarate (1:1)] | – | – | – | – | 3.24 nM | – | 53.7 nM | – | 2190 nM | 0.9 mg/kg |
| C[C@H](N)Cn1ccc2c1-c1cc(F)c(F)cc1C2 [Example 25, (S)-2-(6,7-difluoro-1,4-dihydro-indeno[1,2-b]pyrrol-1-yl)-1-methyl-ethylamine fumarate (1:1)] | – | – | – | – | – | – | 550 nM | 41.7 nM | 10000 nM | – |
| CCC1(CC)c2ccc(OC)cc2-c2c1ccn2C[C@H](C)N [Example 12, (S)-2-(7-methoxy-4,4-diethyl-1,4-dihydro-indeno[1,2-b]pyrrol-1-yl)-1-methyl-ethylamine fumarate (1:0.5)] | – | – | – | – | – | – | 115 nM | 10 nM | 10000 nM | – |
| COc1ccc2c(c1)-c1c(ccn1C[C@H](C)N)C2 [Example 3, (S)-2-(7-methoxy-1,4-dihydro-indeno[1,2-b]pyrrol-1-yl)-1-methyl-ethylaminefumarate (1:0.5)] | 2160 nM | 2830 nM | – | 11.4 nM | 6.92 nM | – | 75.9 nM | – | – | 1.2 mg/kg |
| C[C@H](N)Cn1ccc2c1-c1cc(Cl)ccc1C2 [Example 4, (S)-2-(7-chloro-1,4-dihydro-indeno[1,2-b]pyrrol-1-yl)-1-methyl-ethylamine fumarate (1:0.5)] | 2170 nM | 3230 nM | – | 49.3 nM | – | – | – | – | – | 2.7 mg/kg |
| COc1ccc2c(c1)-c1c(ccn1C[C@H](C)N)C2(C)C.O=C(O)/C=C/C(=O)O [Example 2, (S)-2-(7-methoxy-4,4-dimethyl-1,4-dihydro-indeno[1,2-b]pyrrol-1-yl)-1-methyl-ethylamine fumarate (1:1)] | – | – | – | – | 0.363 nM | – | 9.33 nM | – | 4070 nM | 0.5 mg/kg |
| C[C@H](N)Cn1ccc2c1-c1cc(F)ccc1C2(C)C [Example 9, (S)-2-(7-fluoro-4,4-dimethyl-1,4-dihydro-indeno[1,2-b]pyrrol-1-yl)-1-methyl-ethylamine fumarate (1:1)] | – | – | – | – | 5.13 nM | – | 34.7 nM | – | 2750 nM | – |
